For test [1], the target named is 5-hydroxytryptamine receptor 1E (Homo sapiens, UniProt P28566). Kind of test: Counterscreen assay for S1P3 antagonists: Dose response cell-based high throughput screening assay to identify antagonists of the 5-Hydroxytryptamine Receptor Subtype 1E (5HT1E). [Related pubchem assays: 1429, 485 ]. In kind it is functional. On the technique in general: The purpose of a counterscreen is to sort out artefacts and off-target activity.

Test [2] deals with Sphingosine 1-phosphate receptor 3 (Homo sapiens, UniProt Q99500). Put plainly: Dose response cell-based high throughput screening assay for antagonists of the Sphingosine 1-Phosphate Receptor 3 (S1P3). [Related pubchem assays: 1429, 485 ]. It is filed as functional.
Sphingosine 1-phosphate receptor 3, sequence (Q99500 whole entry): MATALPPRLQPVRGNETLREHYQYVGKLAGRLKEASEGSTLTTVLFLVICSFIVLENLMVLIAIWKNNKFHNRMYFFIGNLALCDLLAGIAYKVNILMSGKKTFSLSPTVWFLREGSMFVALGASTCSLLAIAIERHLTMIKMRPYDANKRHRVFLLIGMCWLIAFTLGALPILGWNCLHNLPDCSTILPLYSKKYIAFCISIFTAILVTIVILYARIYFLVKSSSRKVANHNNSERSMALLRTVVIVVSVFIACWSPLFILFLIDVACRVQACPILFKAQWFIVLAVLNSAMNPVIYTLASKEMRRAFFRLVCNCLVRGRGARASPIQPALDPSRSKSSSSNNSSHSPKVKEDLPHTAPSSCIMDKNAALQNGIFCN
In test [3] the target is Leucine aminopeptidase (Plasmodium falciparum 3D7, UniProt Q8IL11). Kind of test: P. falciparum M17LAP inhibitors, primary screen, biochemical, fluorogenic H-Leu-NHMec substrate, 1536-well (AID 1619). In kind it is functional.
Leucine aminopeptidase, sequence (Q8IL11 whole entry): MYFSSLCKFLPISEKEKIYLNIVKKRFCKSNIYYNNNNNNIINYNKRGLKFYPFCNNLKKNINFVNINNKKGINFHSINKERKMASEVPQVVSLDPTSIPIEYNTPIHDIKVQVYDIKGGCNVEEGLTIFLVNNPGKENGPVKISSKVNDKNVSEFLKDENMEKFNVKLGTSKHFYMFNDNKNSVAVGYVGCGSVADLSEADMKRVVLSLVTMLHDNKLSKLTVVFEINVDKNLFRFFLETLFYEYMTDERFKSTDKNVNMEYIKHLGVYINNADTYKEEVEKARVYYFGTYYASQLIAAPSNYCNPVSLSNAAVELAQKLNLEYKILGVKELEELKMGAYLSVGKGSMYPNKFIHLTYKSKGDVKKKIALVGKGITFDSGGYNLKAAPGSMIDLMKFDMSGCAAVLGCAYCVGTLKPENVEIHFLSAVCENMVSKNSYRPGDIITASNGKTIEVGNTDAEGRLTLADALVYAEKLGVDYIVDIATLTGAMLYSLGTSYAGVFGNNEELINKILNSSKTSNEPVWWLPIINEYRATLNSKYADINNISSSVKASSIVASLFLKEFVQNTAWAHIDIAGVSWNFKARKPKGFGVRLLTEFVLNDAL
Test [4] concerns the target T1, Aspartyl aminopeptidase (Plasmodium falciparum 3D7, UniProt Q8I2J3).
T1 sequence (Q8I2J3 whole entry): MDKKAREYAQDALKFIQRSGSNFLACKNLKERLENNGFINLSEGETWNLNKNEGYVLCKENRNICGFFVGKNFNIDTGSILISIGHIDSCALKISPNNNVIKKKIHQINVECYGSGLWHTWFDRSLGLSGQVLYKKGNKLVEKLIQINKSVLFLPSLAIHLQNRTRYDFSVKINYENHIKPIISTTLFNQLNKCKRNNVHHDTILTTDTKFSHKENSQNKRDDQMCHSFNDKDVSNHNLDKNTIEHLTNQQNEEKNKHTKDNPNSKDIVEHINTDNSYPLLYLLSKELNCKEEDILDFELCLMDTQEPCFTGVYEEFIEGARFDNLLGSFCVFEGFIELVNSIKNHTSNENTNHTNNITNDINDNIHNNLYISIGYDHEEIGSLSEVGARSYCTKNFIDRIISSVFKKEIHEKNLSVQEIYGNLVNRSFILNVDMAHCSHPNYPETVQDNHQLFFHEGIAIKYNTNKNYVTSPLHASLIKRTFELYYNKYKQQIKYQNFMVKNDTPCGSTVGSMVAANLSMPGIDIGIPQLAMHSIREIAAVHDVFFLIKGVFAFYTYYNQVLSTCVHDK
Put plainly: Counterscreen for inhibitors of M1 and M17 aminopeptidases: QFRET-based biochemical high throughput dose response assay for inhibitors of the Plasmodium falciparum M18 Aspartyl Aminopeptidase (PFM18AAP). [Related PubChem assays: 1619 (Screening assay (M17LAP inhibitors).), 1445 (Screening assay (M1AAP inhibitors).)].

The target of test [5] is Procathepsin L (Homo sapiens, UniProt P07711). Put plainly: CTSL1 protease inhibition – biochemical, QFRET, 1536-well, counter-screen for M1/M17 aminopeptidase inhibitor project, dose response (AID 2214).
Procathepsin L, sequence (P07711 whole entry): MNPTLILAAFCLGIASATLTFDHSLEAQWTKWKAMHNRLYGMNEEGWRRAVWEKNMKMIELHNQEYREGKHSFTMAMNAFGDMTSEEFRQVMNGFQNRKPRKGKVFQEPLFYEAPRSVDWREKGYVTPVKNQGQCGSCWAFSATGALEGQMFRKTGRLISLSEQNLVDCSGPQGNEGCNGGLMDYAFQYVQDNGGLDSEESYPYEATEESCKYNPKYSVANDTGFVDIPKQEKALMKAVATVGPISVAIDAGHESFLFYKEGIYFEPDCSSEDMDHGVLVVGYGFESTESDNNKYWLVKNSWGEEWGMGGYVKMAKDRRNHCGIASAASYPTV
Test [6] has as its target Sphingosine 1-phosphate receptor 2 (Homo sapiens, UniProt O95136). Put plainly: Dose Response Cell Based Assay for Agonists of the S1P2 Receptor of Purchased Analogues. [Related pubchem assays: 729, 843, 854, 736 ]. In kind it is functional.
Test [7] is described as follows: Counterscreen for IDE inhibitors: Luminescence-based cell-based high throughput dose response assay to identify compounds that are cytotoxic to HEK cells. [Related pubchem assays: 434962 (Primary screen (IDE inhibitors in singlicate)), 449730 (Counterscreen (Cytotoxicity in triplicate)), 435028 (Confirmation (IDE inhibitors in triplicate)) …. In kind it is functional. Conditions: HEK293.

In test [8] the target is T2, Insulin-degrading enzyme (Homo sapiens, UniProt P14735).
T2 sequence (P14735 whole entry): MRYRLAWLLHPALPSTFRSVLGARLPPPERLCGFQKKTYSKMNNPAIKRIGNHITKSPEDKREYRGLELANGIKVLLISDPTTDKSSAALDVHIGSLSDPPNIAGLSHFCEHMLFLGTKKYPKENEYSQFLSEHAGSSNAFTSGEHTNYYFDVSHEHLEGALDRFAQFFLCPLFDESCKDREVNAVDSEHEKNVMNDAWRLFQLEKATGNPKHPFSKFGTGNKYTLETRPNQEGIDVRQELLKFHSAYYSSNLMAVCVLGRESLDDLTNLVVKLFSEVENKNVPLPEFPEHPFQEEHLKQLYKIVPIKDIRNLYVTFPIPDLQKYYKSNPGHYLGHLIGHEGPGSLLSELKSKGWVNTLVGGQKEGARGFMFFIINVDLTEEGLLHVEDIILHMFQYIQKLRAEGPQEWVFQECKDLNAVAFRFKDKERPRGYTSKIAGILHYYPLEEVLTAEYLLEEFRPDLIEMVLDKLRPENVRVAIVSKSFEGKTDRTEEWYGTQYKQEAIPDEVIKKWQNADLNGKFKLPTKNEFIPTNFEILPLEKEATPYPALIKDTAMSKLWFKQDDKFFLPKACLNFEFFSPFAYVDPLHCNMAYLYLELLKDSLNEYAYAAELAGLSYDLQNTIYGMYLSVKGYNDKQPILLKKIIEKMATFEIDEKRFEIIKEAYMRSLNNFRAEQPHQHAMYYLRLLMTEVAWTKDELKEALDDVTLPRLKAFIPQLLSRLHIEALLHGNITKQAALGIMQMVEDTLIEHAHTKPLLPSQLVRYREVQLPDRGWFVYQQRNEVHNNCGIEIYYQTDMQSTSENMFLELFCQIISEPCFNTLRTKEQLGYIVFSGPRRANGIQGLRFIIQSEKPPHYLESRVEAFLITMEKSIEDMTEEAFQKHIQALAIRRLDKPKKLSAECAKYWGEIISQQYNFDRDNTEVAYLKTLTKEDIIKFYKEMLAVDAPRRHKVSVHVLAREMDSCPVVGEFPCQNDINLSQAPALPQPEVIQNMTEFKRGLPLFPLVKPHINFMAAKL
Put plainly: Dose Response: Fluorescence polarization-based cell-based high throughput dose response assay for inhibitors of insulin-degrading enzyme (IDE). [Related pubchem assays: 434962 (Primary screen (IDE inhibitors in singlicate)), 449730 (Counterscreen (Cytotoxicity in triplicate)), 435028 (Confirmation (IDE inhibitors in triplicate)), 434984 (Summary …. It is filed as functional. (In general: In fluorescence polarisation assays a small probe gives low polarisation when free and higher when bound to something large.)

The nature of test [9]: mitochondrial function rescue without frataxin homolog – Friedreich's ataxia, plus single-dose screen, dose response (AID 1465).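 Also: yeast depleted of Yfh1p frataxin homolog grown on glycerol needing respiration; WST-1 tetrazolium dye reduction as measure of cellular dehydrogenase metabolic activity.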 In kind it is functional.

Each structure is given as a SMILES string. Active and inactive are the calls of the source.

Usually IC50 stands for the midpoint of a concentration-inhibition curve. By EC50 is commonly meant the concentration needed to bring the measured effect to its halfway point.

5-hydroxytryptamine receptor 1E, sequence (P28566 whole entry): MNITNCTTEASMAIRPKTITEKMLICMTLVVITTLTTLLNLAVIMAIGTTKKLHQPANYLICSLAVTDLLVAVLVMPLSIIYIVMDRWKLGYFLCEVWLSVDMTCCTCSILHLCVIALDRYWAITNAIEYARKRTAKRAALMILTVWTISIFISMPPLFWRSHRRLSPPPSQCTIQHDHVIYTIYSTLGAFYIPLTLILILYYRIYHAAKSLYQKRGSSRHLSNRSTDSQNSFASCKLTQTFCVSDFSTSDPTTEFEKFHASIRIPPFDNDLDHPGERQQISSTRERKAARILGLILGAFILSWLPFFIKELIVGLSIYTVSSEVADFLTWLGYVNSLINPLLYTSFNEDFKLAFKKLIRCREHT
Sphingosine 1-phosphate receptor 2, sequence (O95136 whole entry): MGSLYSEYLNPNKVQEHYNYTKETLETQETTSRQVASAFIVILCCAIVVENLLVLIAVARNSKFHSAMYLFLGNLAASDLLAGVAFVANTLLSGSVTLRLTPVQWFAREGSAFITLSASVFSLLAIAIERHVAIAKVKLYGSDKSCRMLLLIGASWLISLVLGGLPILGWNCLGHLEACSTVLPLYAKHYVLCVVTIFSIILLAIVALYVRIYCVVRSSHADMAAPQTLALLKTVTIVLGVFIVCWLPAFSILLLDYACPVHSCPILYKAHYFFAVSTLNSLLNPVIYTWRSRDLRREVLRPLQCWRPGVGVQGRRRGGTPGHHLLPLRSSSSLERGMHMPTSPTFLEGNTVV

For the compound `O=C(Nc1ccc(Br)cc1)C(c1ccccc1)c1ccccc1`, the IC50 in [1] is > 50 µM (not active); in [2], 1.33 µM (active).

Turning to `CCN(CC)c1ccc(NC(=O)CSc2nc(C)cc(O)n2)cc1`, the IC50 in [3] is 3.06 µM (active); in test [4], > 73.5 µM (not active); in test [5], > 59.6 µM (not active).

Turning to `Cc1cc(C(=O)Cn2cc(C(F)(F)F)ccc2=O)c(C)n1Cc1ccccc1`, the EC50 in test [6] is 0.723 µM (active).

With `O=C1NC(=O)N(c2ccc3c(c2)OCO3)C(=O)/C1=C/c1ccc(N2CCCC2)o1`, the IC50 in test [7] is given as > 55.7 µM (not active); in test [8], 20.7 µM (not active). Further, in test [9], the concentration for a half-maximal effect (EC50) is > 100 µM (active).

Source of the values: ChEMBL document CHEMBL1201862, “PubChem BioAssay data set” (2004).
